The test system of this experiment is Plasmodium berghei. The experiment can be described thus: Luciferase/luciferin-expressing antifolate-resistant parasites were used to infect a culture of HepG2 cells that were pre-incubated with compounds. Infected hepatocytes emit light due to the luciferase reaction. Assay results are presented as the percent inhibition of light emission compared to control. […]. The conditions noted are these: sporozoite; for IC90: read-out: LUCIFERASE INFECTION ASSAY - IC90. Type of experiment: functional.

[1] abbreviates: read-out: LUCIFERASE INFECTION ASSAY - IC50.

As to `Cc1cc(=O)nc(N(C(=O)Nc2ccccc2)c2cccc(C(F)(F)F)c2)n1C(=O)Nc1ccccc1`, the IC90 is greater than 10 µM. Moreover, the IC50 (PBLUC_HILL_SLOPE 12.5, PBLUC_R_SQUARED 0.105, read-out: LUCIFERASE INFECTION ASSAY - IC50) came to 9.27 µM.
As to `COc1ccc(/N=c2\scc(-c3ccc(OC(F)F)cc3)n2/N=C/c2ccccc2[N+](=O)[O-])cc1`, the IC90 stood at 7.35 µM. Under “FFLUC_HILL_SLOPE 12.1, FFLUC_R_SQUARED 0.633, PBLUC_HILL_SLOPE 109, PBLUC_R_SQUARED 0.183, read-out: LUCIFERASE INFECTION ASSAY - IC50”, the IC50 stood at 7.2 µM.
Regarding `CCOc1ccc(-c2nc(C(=O)Nc3ncccc3O)cs2)cc1`, the IC90 was found to be 3.84 µM. The IC50 (PBLUC_HILL_SLOPE 16.6, PBLUC_R_SQUARED 0.386, read-out: LUCIFERASE INFECTION ASSAY - IC50) was 3.36 µM.
Consider `CNC(=O)c1ccc(CN(C2CC2)S(=O)(=O)c2ccc(C)cc2C)cc1`, for which the IC90 is 8.11 µM. The IC50 (PBLUC_HILL_SLOPE 2.19, PBLUC_R_SQUARED 0.255, read-out: LUCIFERASE INFECTION ASSAY - IC50) worked out at 2.97 µM.
For the compound `CCCc1cc(=O)n2ncc(-c3ccccc3)c2[nH]1`, the IC90 worked out at 12.2 µM. For the same compound, the concentration for half-maximal inhibition (IC50) (HEPG2TOX_HILL_SLOPE 0.383, HEPG2TOX_R_SQUARED 0.727, PBLUC_HILL_SLOPE 12.3, PBLUC_R_SQUARED 0.782, read-out: LUCIFERASE INFECTION ASSAY - IC50) was determined as 10.2 µM.
Take `Cc1ccc2cc(Cn3cc(Br)ccc3=O)c(Cl)nc2c1C`: the IC90 is 3.58 µM. For the same compound, the IC50 (PBLUC_HILL_SLOPE 15.2, PBLUC_R_SQUARED 0.445, read-out: LUCIFERASE INFECTION ASSAY - IC50) turned out to be 3.1 µM.
For the compound `O=C(COc1ccccc1)Nc1nc2ccccn2c1C(=O)NC1CCCC1`, the IC90 is greater than 8.72 µM. Moreover, the IC50 (PBLUC_HILL_SLOPE 2.22, PBLUC_R_SQUARED 0.0336, read-out: LUCIFERASE INFECTION ASSAY - IC50) amounted to 7.18 µM.
Turning to `O=C1/C(=C/c2ccccc2Cl)CCC/C1=C\c1ccccc1Cl`, the IC90 was greater than 9.61 µM. In addition, the IC50 under setting [1] was greater than 9.61 µM.
On to `COc1cc(C(=O)Nc2ccc(Cn3cncn3)cc2)ccc1Oc1ccc(Cl)cc1[N+](=O)[O-]`, for which the IC90 turned out to be 6.19 µM. Further, the IC50 (PBLUC_HILL_SLOPE 72.9, PBLUC_R_SQUARED 0.579, read-out: LUCIFERASE INFECTION ASSAY - IC50) stood at 6.01 µM.
For `CC(C)Cc1ccc(C(C)c2nn3c(-c4ccco4)nnc3s2)cc1` (configuration not stated), the IC90 was 0.257 µM. In addition, under “HEPG2TOX_HILL_SLOPE 0.343, HEPG2TOX_R_SQUARED 0.467, PBLUC_HILL_SLOPE 2.04, PBLUC_R_SQUARED 0.902, read-out: LUCIFERASE INFECTION ASSAY - IC50”, the IC50 was 0.0873 µM.
For `C=C(C)C(=O)Oc1cccc(Oc2c(F)c(F)c(-c3c(F)c(F)c(Oc4cccc(OC(=O)C(=C)C)c4)c(F)c3F)c(F)c2F)c1`, the 90% effect concentration (IC90) is greater than 10 µM. Also, the IC50 (FFLUC_HILL_SLOPE 16.5, FFLUC_R_SQUARED 0.83, read-out: LUCIFERASE INFECTION ASSAY - IC50) was greater than 10 µM.
Take `c1cncc(-c2nc(NCc3ccnc(N4CCCC4)c3)c3ccccc3n2)c1`: the IC90 was greater than 10 µM. Besides, the IC50 (HEPG2TOX_HILL_SLOPE 5.98, HEPG2TOX_R_SQUARED 0.222, PBLUC_HILL_SLOPE 14.9, PBLUC_R_SQUARED 0.594, read-out: LUCIFERASE INFECTION ASSAY - IC50) was determined as 9.31 µM.
With `COc1ccc2nc(-c3ccccc3)cc(NCCN(C)C)c2c1`, the IC90 was greater than 10.3 µM. Also, the IC50 (PBLUC_HILL_SLOPE 1.97, PBLUC_R_SQUARED 0.162, read-out: LUCIFERASE INFECTION ASSAY - IC50) came to 4.55 µM.
`Cc1ccc(Nc2ncccc2C(=O)Nc2nc3ccccc3[nH]2)c(C)c1`: the IC90 was found to be 7.9 µM. Under “HEPG2TOX_HILL_SLOPE 7.67, HEPG2TOX_R_SQUARED 0.775, PBLUC_HILL_SLOPE 5.03, PBLUC_R_SQUARED 0.402, read-out: LUCIFERASE INFECTION ASSAY - IC50”, the IC50 was determined as 5.1 µM.
Regarding `CN(C)CCNC(=O)c1cccc(-c2cnc3ccc(-c4cccc(F)c4)nn23)c1`, the IC90 was 9.29 µM. Besides, the IC50 (PBLUC_HILL_SLOPE 5.28, PBLUC_R_SQUARED 0.0552, read-out: LUCIFERASE INFECTION ASSAY - IC50) stood at 6.13 µM.
In the case of `Cc1ccc(C)c(OCCN2CCN(CC(=O)Nc3c(C)cccc3C)CC2)c1`, the IC90 is greater than 10 µM. Besides, the IC50 under setting [1] is greater than 10 µM.
As to `CCN1C/C(=C/c2ccccc2OC(F)F)C(=O)/C(=C/c2ccccc2OC(F)F)C1`, the IC90 was greater than 10 µM. In addition, the IC50 (HEPG2TOX_HILL_SLOPE 12.5, HEPG2TOX_R_SQUARED 0.688, PBLUC_HILL_SLOPE 10.4, PBLUC_R_SQUARED 0.447, read-out: LUCIFERASE INFECTION ASSAY - IC50) came to 9.35 µM.
Regarding `CCNC(=O)c1nn(CC2CC2)c2c1CN(C(=O)c1cc(-c3ccccc3F)n[nH]1)CC2`, the IC90 came out at 4.07 µM. The IC50 (PBLUC_HILL_SLOPE 5.13, PBLUC_R_SQUARED 0.551, read-out: LUCIFERASE INFECTION ASSAY - IC50) worked out at 2.65 µM.
As for `CN1CCN(c2ccc(-c3cn4c(-c5cccc(N(C)C)c5)cnc4cn3)cn2)CC1`, the IC90 is greater than 7.98 µM. For the same compound, the IC50 (PBLUC_HILL_SLOPE 2.11, PBLUC_R_SQUARED 0.385, read-out: LUCIFERASE INFECTION ASSAY - IC50) stood at 6.15 µM.
For `COc1cc(-c2cnc3c(Nc4cccc(OC(F)(F)C(F)F)c4)nccn23)cc(OC)c1OC`, the IC90 was determined as 5.38 µM. In addition, the IC50 (HEPG2TOX_HILL_SLOPE 8.4, HEPG2TOX_R_SQUARED 0.356, PBLUC_HILL_SLOPE 3.39, PBLUC_R_SQUARED 0.397, read-out: LUCIFERASE INFECTION ASSAY - IC50) turned out to be 2.81 µM.
For the compound `CC(=O)c1sc(-c2ccc(OCC(=O)Nc3ccc(S(=O)(=O)N4CCCC4)cc3)cc2)nc1C`, the IC90 is greater than 10 µM. Besides, the IC50 under setting [1] is greater than 10 µM.
On to `COc1cc(-c2nccc3n[nH]c(C)c23)cc(OC)c1OC`, for which the IC90 is greater than 10 µM. In addition, the IC50 (HEPG2TOX_HILL_SLOPE 1.13, HEPG2TOX_R_SQUARED 0.879, read-out: LUCIFERASE INFECTION ASSAY - IC50) was greater than 10 µM.
On to `C=CCc1ccc(O)c(-c2ccc(O)c(CC=C)c2)c1` [HONOKIOL], for which the IC90 is greater than 12.4 µM. The IC50 (FFLUC_HILL_SLOPE 14.9, FFLUC_R_SQUARED 0.388, read-out: LUCIFERASE INFECTION ASSAY - IC50) is greater than 12.4 µM.
Turning to `O=C(CSCCCN1CCN(c2cccc(Cl)c2)CC1)N/N=C/c1ccc(Cl)cc1`, the IC90 is greater than 7.09 µM. For the same compound, the IC50 under setting [1] was greater than 7.09 µM.
With `O=C(NCCC(=O)N1CCc2sccc2C1c1ccccc1)c1ccsc1` (configuration not stated), the IC90 came to 5.51 µM. Also, where the note is “PBLUC_HILL_SLOPE 101, PBLUC_R_SQUARED 0.289, read-out: LUCIFERASE INFECTION ASSAY - IC50”, the IC50 was 5.39 µM.
`CCCCNC(=O)N1CCC(C(=O)c2c(C)c(C)c(C)c(C)c2C)CC1`: the concentration for an effect of 90% (IC90) is greater than 9.2 µM. For the same compound, the IC50 under setting [1] is greater than 9.2 µM.
Take `O=C(CSc1ccc(S(=O)(=O)N2CCCCCC2)cn1)N1CCN(c2ccccc2F)CC1`: the IC90 was greater than 10 µM. Further, for the setting “HEPG2TOX_HILL_SLOPE 8.02, HEPG2TOX_R_SQUARED 0.252, PBLUC_HILL_SLOPE 16.3, 0.0846, PBLUC_R_SQUARED 0.285, 0.0684, read-out: LUCIFERASE INFECTION ASSAY - IC50”, the IC50 was 9.76 µM.
As to `CCOC(=O)c1c(C)[nH]c(C(=O)CSc2nnc(C3CC3)n2N)c1C`, the 90% effect concentration (IC90) was found to be 0.847 µM. Under “PBLUC_HILL_SLOPE 1.71, PBLUC_R_SQUARED 0.964, read-out: LUCIFERASE INFECTION ASSAY - IC50”, the IC50 was 0.235 µM.
For `O=C(c1cc2c(s1)CCC2)N1C=CN(c2ccc(C(F)(F)F)cn2)C1c1nccn1-c1ccc(C(F)(F)F)cn1` (configuration not stated), the IC90 was greater than 10 µM. Further, the IC50 (FFLUC_HILL_SLOPE 2.58, FFLUC_R_SQUARED 0.668, PBLUC_HILL_SLOPE 14.8, PBLUC_R_SQUARED 0.174, read-out: LUCIFERASE INFECTION ASSAY - IC50) came to 9.12 µM.
For the compound `CCN(CC)S(=O)(=O)c1cc(C(=O)Nc2nc3ccccc3[nH]2)n(C)c1`, the IC90 was determined as 9.54 µM. The IC50 (HEPG2TOX_HILL_SLOPE 9.29, HEPG2TOX_R_SQUARED 0.829, PBLUC_HILL_SLOPE 13.1, PBLUC_R_SQUARED 0.63, read-out: LUCIFERASE INFECTION ASSAY - IC50) is 8.06 µM.
On to `CN(C(=O)COC(=O)c1nc(Cl)c(Cl)c(Cl)c1Cl)C1CCS(=O)(=O)C1` (configuration not stated), for which the IC90 is greater than 10 µM. For the same compound, the IC50 (HEPG2TOX_HILL_SLOPE 15.2, HEPG2TOX_R_SQUARED 0.451, read-out: LUCIFERASE INFECTION ASSAY - IC50) is greater than 10 µM.
Take `CC(C)(C)c1ccc(-n2nnnc2-c2ccccc2)cc1`: the IC90 is greater than 11.9 µM. For the same compound, the IC50 (PBLUC_HILL_SLOPE 1.83, PBLUC_R_SQUARED 0.134, read-out: LUCIFERASE INFECTION ASSAY - IC50) stood at 6.62 µM.
Regarding `Cc1cc(C)nc(N/N=C/c2c(C)nn(-c3ccccc3)c2Sc2nc3ccccc3s2)n1`, the IC90 was greater than 10 µM. Moreover, the IC50 under setting [1] is greater than 10 µM.
Take `CN(Cc1nc2ccccc2s1)C(=O)c1cc(-c2ccccc2)c(N2CCOCC2)s1`: the IC90 was greater than 10 µM. Further, the concentration for half-maximal inhibition (IC50) under setting [1] was greater than 10 µM.
For `Cc1nn(-c2ccc(F)cc2)c2ncc(C(=O)Nc3nc(C4CC4)cs3)cc12`, the IC90 came out at 4.45 µM. Moreover, under “PBLUC_HILL_SLOPE 2.65, PBLUC_R_SQUARED 0.58, read-out: LUCIFERASE INFECTION ASSAY - IC50”, the IC50 stood at 1.94 µM.
Take `Nc1ncc(-c2ccc(C(=O)NC3CC3)cc2)cc1-c1ccc(F)c(Cl)c1`: the IC90 is 8.39 µM. Besides, for the setting “PBLUC_HILL_SLOPE 15.4, PBLUC_R_SQUARED 0.346, read-out: LUCIFERASE INFECTION ASSAY - IC50”, the IC50 is 7.27 µM.

In general, IC50 refers to the concentration at which inhibition is half-maximal. In general, IC90 refers to the concentration at which the effect reaches the 90% level.

The values above are taken from ChEMBL document CHEMBL4483862, “Open-source discovery of chemical leads for next-generation chemoprotective antimalarials” (2018).
